In the C3SDB collision cross section collection:

Settings: instrument: DT, single field, calibrated with Agilent tune mix (Agilent)

Row | SMILES | collision cross section (N2) ([M+H]+) [Å²] | collision cross section (N2) ([M-H]-) [Å²] | further results
1 | CC(C)[C@@H](C)/C=C/[C@@H](C)[C@H]1CC[C@H]2/C(=C/C=C3\C[C@@H](O)CC[C@@H]3C)CCC[C@]12C [Dihydrotachysterol] | 205.8 |  | 
2 | CC(C)=CCOP(=O)(O)OP(=O)(O)O [Dimethylallyl pyrophosphate] |  | 143.1 | 
3 | OC[C@@H](O)[C@H](O)[C@H](O)[C@@H](O)CO [Dulcitol] |  | 128.77 | collision cross section (N2) ([M+Na]+): 141.7 Å²
4 | CC/C=C\C/C=C\C/C=C\C/C=C\C/C=C\CCCC(=O)O [Eicosapentaenoic acid] |  | 178.53 | 
5 | C[C@]12CC[C@@H]3c4ccc(OS(=O)(=O)O)cc4CC[C@H]3[C@@H]1CCC2=O [Estrone 3-sulfate] |  | 188.85 | 
6 | C[C@]12CC[C@@H]3c4ccc(O)cc4CC[C@H]3[C@@H]1CCC2=O [Estrone] | 164.3 | 170.63 | 
7 | O=c1cc(-c2ccccc2)oc2ccccc12 [Flavone] | 146.7 |  | 
8 | Nc1nc(=O)c2nc(CNc3ccc(C(=O)N[C@@H](CCC(=O)O)C(=O)O)cc3)cnc2[nH]1 [Folate] | 195.5 |  | 
9 | C[C@@H]1OC(OP(=O)(O)OP(=O)(O)OC[C@H]2O[C@@H](n3cnc4c(=O)nc(N)[nH]c43)[C@H](O)[C@@H]2O)[C@@H](O)[C@H](O)[C@@H]1O (stereo partly drawn) [GDP-L-Fucose] | 217.2 | 206.72 | 
10 | Nc1nc(=O)c2ncn([C@@H]3O[C@H](COP(=O)(O)OP(=O)(O)O[C@H]4O[C@H](CO)[C@@H](O)[C@H](O)[C@H]4O)[C@@H](O)[C@H]3O)c2[nH]1 [GDP-glucose] | 218.9 | 208.72 | 
11 | Nc1nc(=O)c2ncn([C@@H]3O[C@H](COP(=O)(O)OP(=O)(O)O)[C@@H](O)[C@H]3O)c2[nH]1 [GDP] | 191.5 |  | 
12 | OC[C@H]1O[C@H](OC2[C@@H](O)[C@H](O)C(O)[C@H](O)[C@@H]2O)[C@H](O)[C@@H](O)[C@H]1O (stereo partly drawn) [Galactinol] |  |  | collision cross section (N2) ([M+Na-2H]-): 168.98 Å²; collision cross section (N2) ([M+Na]+): 177.7 Å²
13 | O=Cc1cc(O)ccc1O [Gentisaldehyde] | 122 | 119.54 | 
14 | N[C@@H](CCC(=O)N[C@@H](CSSC[C@H](NC(=O)CC[C@H](N)C(=O)O)C(=O)NCC(=O)O)C(=O)NCC(=O)O)C(=O)O [Glutathione disulfide] | 224.7 |  | 
15 | C[N+](C)(C)CCOP(=O)([O-])OC[C@H](O)CO [Glycerophosphocholine] | 155.5 |  | 
16 | C[C@H](CCC(=O)NCC(=O)O)[C@H]1CC[C@H]2[C@@H]3[C@H](O)C[C@@H]4C[C@H](O)CC[C@]4(C)[C@H]3CC[C@]12C [Glycochenodeoxycholate] |  | 198.85 | collision cross section (N2) ([M+Na]+): 203.3 Å²
17 | C[C@H](CCC(=O)NCC(=O)O)[C@H]1CC[C@H]2[C@@H]3CC[C@@H]4C[C@H](O)CC[C@]4(C)[C@H]3C[C@H](O)[C@]12C [Glycodeoxycholic acid] |  | 197.81 | collision cross section (N2) ([M+Na]+): 203.9 Å²
18 | NC(N)=NCC(=O)O [Guanidoacetic acid] | 124.8 |  | 
19 | Nc1nc(=O)c2ncn([C@@H]3O[C@H](COP(=O)(O)OP(=O)(O)O[C@H]4O[C@H](CO)[C@@H](O)[C@H](O)[C@@H]4O)[C@@H](O)[C@H]3O)c2[nH]1 [Guanosine diphosphate mannose] |  | 207.35 | collision cross section (N2) ([M+Na]+): 220.9 Å²
20 | CC(C)(COP(=O)(O)OP(=O)(O)OC[C@H]1O[C@@H](n2cnc3c(N)ncnc32)[C@H](O)[C@@H]1OP(=O)(O)O)[C@@H](O)C(=O)NCCC(=O)NCCSC(=O)C[C@@](C)(O)CC(=O)O [HMG-CoA] |  | 259.35 | 
21 | NCCc1cnc[nH]1 [Histamine] | 120 |  | 

Row | SMILES | collision cross section (N2) ([M+H]+) [Å²] | collision cross section (N2) ([M-H]-) [Å²] | further results
22 | O=C(O)CC[C@@](O)(CC(=O)O)C(=O)O [Homocitrate] |  | 129.99 | collision cross section (N2) ([M+Na]+): 145 Å²
23 | O=C(O)CC(C(=O)O)C(O)C(=O)O (stereo not drawn) [Isocitrate] |  | 125.26 | 
24 | N[C@@H](C[C@@H](O)C(=O)O)C(=O)O [L-Erythro-4-Hydroxyglutamic acid] | 135.8 |  | collision cross section (N2) ([M-H2O-H]-): 123.86 Å²
25 | C[C@@H]1OC(O)[C@@H](O)[C@H](O)[C@@H]1O (stereo partly drawn) [L-Fucose] |  |  | collision cross section (N2) ([M+Na]+): 144.6 Å²
26 | NC(=O)CC[C@H](N)C(=O)O [L-Glutamine] |  |  | collision cross section (N2) ([M+Na]+): 133.7 Å²
27 | N[C@H](CO)Cc1cnc[nH]1 [L-Histidinol] | 128.3 | 126.11 | 
28 | O=C(O)[C@H](O)[C@@H](O)CO [L-Threonate] |  | 116.84 | 
29 | N[C@@H](Cc1cc(I)c(Oc2cc(I)c(O)c(I)c2)c(I)c1)C(=O)O [L-Thyroxine] | 216.2 |  | collision cross section (N2) ([M+Na-2H]-): 194.19 Å²
30 | CCCCCCCCCCCC(=O)SCCNC(=O)CCNC(=O)[C@H](O)C(C)(C)COP(=O)(O)OP(=O)(O)OC[C@H]1O[C@@H](n2cnc3c(N)ncnc32)[C@H](O)[C@@H]1OP(=O)(O)O [Lauroyl-CoA] | 284 | 283.18 | 
31 | N[C@@H](Cc1cc(I)c(Oc2ccc(O)c(I)c2)c(I)c1)C(=O)O [Liothyronine] | 209.7 |  | collision cross section (N2) ([M+Na-2H]-): 185.23 Å²
32 | N#CC(O)c1ccccc1 (stereo not drawn) [Mandelonitrile] | 128.9 |  | 
33 | COc1ccc2[nH]cc(CCNC(C)=O)c2c1 [Melatonin] | 154.3 | 153.53 | 
34 | CC1=CC(=O)c2ccccc2C1=O [Menadione (Vitamin K3)] | 134.6 |  | 
35 | CC1=CC(=O)c2ccccc2C1=O [Menadione] |  | 129.79 | 
36 | CCCCCCCCCCCCCC(=O)SCCNC(=O)CCNC(=O)C(O)C(C)(C)COP(=O)(O)OP(=O)(O)OC[C@H]1O[C@@H](n2cnc3c(N)ncnc32)[C@H](O)[C@@H]1OP(=O)(O)O (stereo partly drawn) [Myristoyl-coenzyme A] | 289.9 | 290.65 | 
37 | Cn1cc(C(N)=O)ccc1=O [N1-Methyl-2-pyridone-5-carboxamide] | 132.1 |  | 
38 | CN(C)c1nc(=O)c2ncn([C@@H]3O[C@H](CO)[C@@H](O)[C@H]3O)c2[nH]1 [N2,N2-Dimethylguanosine] | 170.6 | 169.16 | 
39 | CC(=O)Nc1ccn([C@@H]2O[C@H](CO)[C@@H](O)[C@H]2O)c(=O)n1 [N4-Acetylcytidine] | 162.7 | 161.4 | 
40 | CC(=O)NCCCC[C@H](N)C(=O)O [N6-Acetyl-L-lysine] | 142.3 | 139.75 | 
41 | CC(=O)N[C@H]1C(O)O[C@H](COP(=O)(O)O)[C@@H](O)[C@@H]1O (stereo partly drawn) [N-Acetyl-D-Glucosamine 6-Phosphate] |  | 152.83 | collision cross section (N2) ([M+Na]+): 164 Å²
42 | CC(=O)N[C@H]1[C@H]([C@H](O)[C@H](O)CO)OC(O)(C(=O)O)C[C@@H]1O (stereo partly drawn) [N-Acetylneuraminic acid] |  |  | collision cross section (N2) ([M+Na]+): 168.6 Å²
